One test deals with A549 cells. Briefly: 15-HETE generation by IL-1β-treated A549 cells. The class given is cell-based, human. As to conditions: permeabilized IL-1β-treated A549 cells, arachidonic acid 20 μM. As for the experimental part: FIG. 3 is a graph showing the relative chiralities of 15-HETE triggered by ASA. A549 cells (10^7 cells per flask) were exposed to IL-1β (1 ng/ml) for 24 h, treated with vehicle (0.1% vol/vol ethanol) (□) or ASA (▪) for 20 min and then incubated (30 min, 37° C.) in HBSS containing arachidonic acid (20 μM) and A23187 (5 μM). Products were chromatographed by RP-HPLC (as in FIG. 1B) and the region containing 15-HETE was collected, extracted with chloroform and treated with diazomethane. Chiral analysis was performed with a Bakerbond DNBPG (see Methods for details). Results are representative of two separate experiments showing similar results.
In incubations involving permeabilized A549 cells (prepared by a rapid freeze-thaw cycle), IL-1β-treated (1 ng/ml, 24 h) A549 cells (1.5×10^6 cells/ml) were pretreated for 20 min with either vehicle (0.1% EtOH), ASA (500 (M; used throughout), 5 (M 17-ODYA, an inhibitor of cytochrome P450, (Muerhoff A. S., et al. (1989) Prostaglandin and fatty acid ω and (ω-1)-oxidation in rabbit lung: acetylenic fatty acid mechanism-based inactivators as specific inhibitors. J Biol.Chem. 244: 749-756.), or […] Rev 5901 isomer, a 5-LO inhibitor, subjected to two cycles of rapid freezing in a dry ice-acetone bath and thawing to room temperature (full cycle <20 min), and incubated with arachidonic acid ([…] for 20 min at 37° C. in 4 ml of DPBS^2+. In experiments involving radiolabeled arachidonic acid, incubations were initiated with the addition of [^3H]-arachidonic acid (0.25 (Ci/ml) plus unlabeled arachidonic acid ([…] for 20 min at 37° C.
For time-course experiments involving the generation of 15-HETE from endogenous sources (see FIG. 2B), intact A549 cells were exposed to IL-1β (1 ng/ml) for up to 48 h and then treated with vehicle (containing 0.1% EtOH) or ASA for 20 min followed by addition of ionophore A23187 (5 μM) in 4 ml of HBSS for 30 min at 37° C.
The monohydroxy eicosanoids (i. e. 5-, 12- and 15-HETE) from A549 cells were analyzed using a Ultrasphere-ODS column (5 μm, 4.6 mm×25 cm) (Beckman Instruments, Fullerton, Calif.) was eluted with MeOH/H2O/acetic acid (65:35:0.01; v/v/v) as phase one (t0-20 min), and a linear gradient with MeOH/acetic acid (99.9:0.1, v/v) as phase two (20-45 min) at a flow rate of 1.0 ml/min. The R- and S-enantiomers of 15-HETE were resolved and identified using a chiral HPLC system similar to that reported by Hawkins et al. (1988). […] When indicated, generation of 15-HETE from endogenous sources was monitored by radioimmunoassay (RIA). […]

Test [1] has as its system HUVEC (putative LTD4 receptors). As to the kind of experiment: 3H-LXA4 specific binding to HUVEC. Also on record: species or system human. As for the experimental part:
Cell cultures and differentiation. HL-60 cells were seeded in RPMI medium supplemented with 100 U/ml penicillin, 100 μg/ml streptomycin, and 10% fetal calf serum (Hyclone, Logan, Utah), incubated at 37° C. with 5% CO2 atmosphere in 250 ml flasks. […] Human umbilical vein endothelial cells (HUVEC) maintained in culture third passage were obtained from Dr. M. Gimbrone (Brigham and Women's Hospital Department of Pathology).
Binding experiments with HUVEC cells were performed in 12 well plates with 3.5×10^5 cells/well. After 10 min, wells were washed twice with PBS and cell-associated label was recovered by adding glacial acetic acid (0.5 ml). Results obtained from these assays were submitted for further analysis using the Ligand program (Elsevier-Biosoft, Cambridge, UK).

The target of test [2] is T1, LXA4 specific binding sites of differentiated HL-60 cells (Homo sapiens, UniProt P25090).
T1 construct: endogenous in cells; host or cells: HL-60 cells differentiated with DMSO, retinoic acid or PMA; intact cells
T1 sequence (P25090 1-351): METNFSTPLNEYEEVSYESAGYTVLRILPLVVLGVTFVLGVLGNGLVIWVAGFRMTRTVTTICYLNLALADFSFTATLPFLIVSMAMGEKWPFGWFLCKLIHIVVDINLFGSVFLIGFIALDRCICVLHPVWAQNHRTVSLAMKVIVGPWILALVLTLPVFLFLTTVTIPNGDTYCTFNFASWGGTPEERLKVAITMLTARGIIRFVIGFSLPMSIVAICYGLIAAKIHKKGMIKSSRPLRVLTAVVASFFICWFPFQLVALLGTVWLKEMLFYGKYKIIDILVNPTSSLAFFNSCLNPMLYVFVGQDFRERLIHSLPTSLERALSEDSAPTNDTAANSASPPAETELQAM
Briefly: 3H-LXA4 specific binding to differentiated HL-60 cells. As for the experimental part:
Preparation of [11,12-^3H]LXA4. Tritiation of 11,12-acetylenic LXA4 methyl ester was carried out under a custom tritiation service (NET-259:92-2326) by New England Nuclear (Boston, Mass.). Briefly, 11,12-acetylene methyl ester was characterized by UV absorbance and reverse-phase HPLC as in (Nicolaou, K. C. et al. (1985) J. Am. Chem. Soc. 107:7515) and exposed to tritium atmosphere in methylene chloride at room temperature. This incubation was stirred in the presence of Lindlar catalyst (1.0 mg from Fluka Chemicals) for˜1 h. The resulting mixture was stored in methanol and isolated using RP-HPLC. Tritiated products were chromatographed as methyl esters utilizing a gradient HPLC system equipped with a photodiode array rapid spectral detector (Serhan, C. N., Methods in Enzymology: Arachidonate Related Lipid Mediators, in Murphy R. C., Fitzpatrick, F. (eds.), vol. 187. Orlando, Fla., Academic, (1990), p. 167). This mixture contained both [11,12-^3H]LXA4 and [11,12-^3H]-11-trans-LXA4 methyl esters (˜1:3 ratio) as determined by coelution with synthetic standards. After RP-HPLC, fractions containing [11,12-^3H]LXA4 were collected, and extracted into ethyl acetate. The free acid was prepared by LiOH saponification (Fiore, S. et al. (1992) J. Biol. Chem. 267:16168). Material from these fractions, when injected into UV-electrochemical detection HPLC, gave greater than 90% of radioactivity associated with a tetraene-containing product that coeluted with synthetic LXA4. Materials that eluted with the retention time of authentic LXA4 in two HPLC systems were taken for binding experiments. The specific activity calculated for [11,12-^3H]LXA4 was 40.5 Ci/mmole.
Cell cultures and differentiation. HL-60 cells were seeded in RPMI medium supplemented with 100 U/ml penicillin, 100 μg/ml streptomycin, and 10% fetal calf serum (Hyclone, Logan, Utah), incubated at 37° C. with 5% CO2 atmosphere in 250 ml flasks. Individual flasks containing ˜[…] next received dimethyl sulfoxide (DMSO) (1.12% v/v, 120 h) or retinoic acid (RA) (1 μM, 120 h) or phorbol myristate acetate (PMA) (20 nM, 48 h). Before performing binding assays, cells were washed twice in phosphate buffered saline (PBS), Ca^2+- and Mg^2+-free, enumerated and suspended at 20×10^6 cells/ml in Tris buffer (10 mM), pH 7.4 (Fiore, S. et al.(1992) J. Biol. Chem. 267:16168). Nitro blue tetrazolium reduction was performed to monitor induction of polymorphonuclear phenotype as in (Imaizumi, M. and Breitman, T. R. (1986) Blood 67:1273), and cell adherence was determined for induction of macrophage-like phenotype (Collins, S. J. (1987) Blood 70:1273). Human umbilical vein endothelial cells (HUVEC) maintained in culture third passage were obtained from Dr. M. Gimbrone (Brigham and Women's Hospital Department of Pathology).
Ligand binding. ^3H-LXA4 and ^3H-LTB4 binding was performed essentially as in Fiore, S. et al.(1992) J. Biol. Chem. 267:16168. After suspending cells in Tris buffer 10 mM (pH 7.4, Ca^2+ 2.5 mM, Mg^2+ 1.2 mM), aliquots (0.5 ml) were incubated (20 min at 4° C.) with ^3H- ligands alone (0.3 nM) or in the presence of increasing concentrations of homoligands or other compounds (3-300 nM). The incubations were rapidly centrifuged (60 sec, 12,000 g) on silicon oil (d=1.028), and cell-associated radioactivity was determined by liquid scintillation counting (Wallac 1409, Pharmacia, Piscataway, N.J.). Binding experiments with HUVEC cells were performed in 12 well plates with 3.5×10^5 cells/well. After 10 min, wells were washed twice with PBS and cell-associated label was recovered by adding glacial acetic acid (0.5 ml). Results obtained from these assays were submitted for further analysis using the Ligand program (Elsevier-Biosoft, Cambridge, UK).

Experimental findings from patent US20030134901A1, “Lipoxin compounds and their use in treating cell proliferative disorders” (priority 1993, published 2003) are described below.

In the case of `C#CCCCCCCCCCCCCCCCC(=O)O` [17-ODYA, 17-octadecaynoic acid], the “reduction in 15-HETE” value with A549 cells is reported as about 50%.

Consider `CCCCC/C=C\C\C=C/C=C/C=C/[C@@H](SC[C@H](N)C(=O)NCC(=O)O)[C@@H](O)CCCC(=O)O` [LTD4], for which the “competition of specific 3H-LXA4 binding” value in test [1] is given as “effective in competing”.

Consider `O=C(O)CCS[C@H](c1ccccc1CCCCCCCCc1ccccc1)[C@@H](O)C(=O)O` [SKF 104353], for which the “displacement of 3H-LXA4 specific binding” value in test [2] (competition, competitor 300 nM where printed) is listed as “did not displace”. Further, the “competition of specific 3H-LXA4 binding” value in test [1] is listed as “effective in competing”.

Take `[3H]C(/C=C/C=C/[C@@H](O)[C@@H](O)CCCC(=O)O)=C([3H])/C=C/[C@@H](O)CCCCC` [[11,12-^3H]LXA4]: the Kd came out at 0.6 ± 0.3 nM in test [2] (isotherm binding, 4° C., 10 min, 0.1-30 nM) and 11 ± 2.6 nM in test [1].

Usually Kd stands for the concentration at which binding is half-saturated. A lower Kd goes with a tighter complex.
